Source: US10968210B2, “Diamino-alkylamino-linked arylsulfonamide compounds with selective activity in voltage-gated sodium channels” (Merck Sharp & Dohme Corp., priority 2016, dated 2021)

How the values were obtained:
[1] = target: T1, human Nav 1.7 channels stably expressed in HEK 293 cells (Homo sapiens, UniProt Q15858); test: IonWorks Quattro automated patch-clamp, inactivated state block of Nav 1.7; format: cell-based; settings: double-pulse protocol, HEK 293 cells held at -100 mV, read-out: potency for the Nav 1.7 sodium ion channel (IC50, IonWorks)
T1 construct: expressed in transfected cells; host or cells: HEK 293
Protocol: (§1) IonWorks® Experimental Procedure
(§2) Compounds were tested on human Nav 1.7 and Nav 1.5 channels stably expressed in HEK 293 cells. Sodium current measurements on IonWorks Quattro: An automated patch-clamp assay on the IonWorks Quattro platform (Molecular Devices) was used to measure state-dependent inhibition of human Nav 1.7 and Nav 1.5 channels. Cells were sealed on a planar substrate using the Population Patch Plate (PPC) technology. Electrical access was obtained using both nystatin and amphotericin. A double-pulse protocol was used for the determination of IC50 values for inactivated state block. Nav 1.7 and Nav 1.5 expressing cells were voltage clamped at −100 mV and −110 mV, respectively. A depolarizing prepulse to −10 mV (Nav 1.7) or −30 mV (Nav 1.5) for 1000 ms followed by a 10 ms repolarization to ˜100 mV (Nav1.7) or −110 mV (Nav 1.5) was given to generate fractional channel inactivation of ˜50%, followed by a 10 ms test pulse to −10 mV (Nav 1.7) or −30 mV (Nav 1.5) to measure peak current in control conditions and after compound addition. The following recording solutions were used (mM). External: 150 NaCl, 2 CaCl2, 5 KCl, 1 Mg Cl2, 10 HEPES, 12 Dextrose; internal: 120 CsF, 30 CsCl, 10 EGTA, 5 HEPES, 5 NaF, 2 MgCl2.
(§3) For all electrophysiology experiments, offline analysis was used to determine percent inhibition as a function of drug concentration. IC50 values were determined by fitting to the Hill equation.
(§4) The various compounds in Examples 1 through 4 and Tables 1 through 3 exemplified above were assayed for activity and selectivity using the foregoing IonWorks® technique. The results are reported in the following paragraph in a format expressing the identification of the compound with reference Example and compound (e.g. Ex 1-9 is Example 1, compound 9) followed by the observed potency in nM and the ratio of Nav1.7 potency: Nav1.5 potency as described here. Thus, Ex1-9: 1.7=65/ratio=641 identifies compound Example 1, compound 9 as having 65 nM potency for the Nav 1.7 sodium ion channel (as measured by IonWorks®) and a ratio of 641 Nav 1.7: Nav 1.5 potency, determined by IonWorks® measurement.

[2] = target: T2, human Nav 1.5 channels stably expressed in HEK 293 cells (Homo sapiens, UniProt Q14524); test: IonWorks Quattro automated patch-clamp, inactivated state block of Nav 1.5 (reported as ratio to Nav 1.7 potency); format: cell-based; settings: selectivity for Nav 1.7 over Nav 1.5, both by IonWorks
T2 construct: expressed in transfected cells; host or cells: HEK 293
Protocol: as §1, §2, §3, §4

T1 sequence (Q15858 whole entry): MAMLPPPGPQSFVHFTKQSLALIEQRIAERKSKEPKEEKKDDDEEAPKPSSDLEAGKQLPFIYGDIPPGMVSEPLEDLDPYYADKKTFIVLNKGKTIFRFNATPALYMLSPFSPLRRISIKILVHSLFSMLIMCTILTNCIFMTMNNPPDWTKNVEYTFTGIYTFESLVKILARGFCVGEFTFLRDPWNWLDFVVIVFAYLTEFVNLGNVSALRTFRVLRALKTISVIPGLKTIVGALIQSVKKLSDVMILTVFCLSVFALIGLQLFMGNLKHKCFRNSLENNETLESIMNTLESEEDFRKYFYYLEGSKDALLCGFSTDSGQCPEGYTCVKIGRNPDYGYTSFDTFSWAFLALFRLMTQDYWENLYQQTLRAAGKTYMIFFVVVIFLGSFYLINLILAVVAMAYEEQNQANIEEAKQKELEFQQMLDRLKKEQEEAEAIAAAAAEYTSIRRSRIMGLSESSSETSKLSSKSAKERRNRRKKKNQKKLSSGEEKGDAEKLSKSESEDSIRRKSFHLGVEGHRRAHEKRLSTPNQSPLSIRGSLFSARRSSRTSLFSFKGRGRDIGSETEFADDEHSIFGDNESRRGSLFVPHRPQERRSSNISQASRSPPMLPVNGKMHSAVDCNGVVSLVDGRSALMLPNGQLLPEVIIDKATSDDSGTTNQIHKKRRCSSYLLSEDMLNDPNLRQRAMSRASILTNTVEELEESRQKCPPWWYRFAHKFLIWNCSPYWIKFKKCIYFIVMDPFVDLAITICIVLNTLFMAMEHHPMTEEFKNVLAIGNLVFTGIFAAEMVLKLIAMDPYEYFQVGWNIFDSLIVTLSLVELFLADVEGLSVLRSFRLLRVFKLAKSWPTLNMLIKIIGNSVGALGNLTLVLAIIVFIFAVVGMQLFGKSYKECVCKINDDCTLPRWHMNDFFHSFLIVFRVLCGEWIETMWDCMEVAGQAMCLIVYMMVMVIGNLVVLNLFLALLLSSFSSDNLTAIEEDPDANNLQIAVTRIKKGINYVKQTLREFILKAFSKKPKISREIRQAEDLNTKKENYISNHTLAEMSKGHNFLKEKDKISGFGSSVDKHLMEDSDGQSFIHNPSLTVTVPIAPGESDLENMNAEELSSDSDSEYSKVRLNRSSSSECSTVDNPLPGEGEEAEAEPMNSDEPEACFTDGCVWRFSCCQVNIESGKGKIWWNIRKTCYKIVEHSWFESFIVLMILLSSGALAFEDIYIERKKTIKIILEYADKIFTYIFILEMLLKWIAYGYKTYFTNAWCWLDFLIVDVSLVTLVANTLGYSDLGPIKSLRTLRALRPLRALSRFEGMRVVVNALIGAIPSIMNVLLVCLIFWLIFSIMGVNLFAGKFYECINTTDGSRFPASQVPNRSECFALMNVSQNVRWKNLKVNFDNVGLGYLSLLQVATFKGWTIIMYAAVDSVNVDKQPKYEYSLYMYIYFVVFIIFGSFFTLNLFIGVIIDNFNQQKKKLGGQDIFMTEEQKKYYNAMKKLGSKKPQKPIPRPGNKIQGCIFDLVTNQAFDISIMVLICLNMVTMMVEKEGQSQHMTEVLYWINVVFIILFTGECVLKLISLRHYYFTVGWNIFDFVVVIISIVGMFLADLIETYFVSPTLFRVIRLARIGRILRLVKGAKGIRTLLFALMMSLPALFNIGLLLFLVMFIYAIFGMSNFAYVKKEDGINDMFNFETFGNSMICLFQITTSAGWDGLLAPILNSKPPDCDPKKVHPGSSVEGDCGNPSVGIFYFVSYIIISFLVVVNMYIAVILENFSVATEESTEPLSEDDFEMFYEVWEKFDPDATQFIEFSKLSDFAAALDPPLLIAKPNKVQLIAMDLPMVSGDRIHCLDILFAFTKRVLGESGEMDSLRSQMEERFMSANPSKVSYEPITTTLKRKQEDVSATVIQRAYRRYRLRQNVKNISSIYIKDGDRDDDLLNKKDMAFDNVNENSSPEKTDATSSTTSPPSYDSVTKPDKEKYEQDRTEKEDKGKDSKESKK
T2 sequence (Q14524 whole entry): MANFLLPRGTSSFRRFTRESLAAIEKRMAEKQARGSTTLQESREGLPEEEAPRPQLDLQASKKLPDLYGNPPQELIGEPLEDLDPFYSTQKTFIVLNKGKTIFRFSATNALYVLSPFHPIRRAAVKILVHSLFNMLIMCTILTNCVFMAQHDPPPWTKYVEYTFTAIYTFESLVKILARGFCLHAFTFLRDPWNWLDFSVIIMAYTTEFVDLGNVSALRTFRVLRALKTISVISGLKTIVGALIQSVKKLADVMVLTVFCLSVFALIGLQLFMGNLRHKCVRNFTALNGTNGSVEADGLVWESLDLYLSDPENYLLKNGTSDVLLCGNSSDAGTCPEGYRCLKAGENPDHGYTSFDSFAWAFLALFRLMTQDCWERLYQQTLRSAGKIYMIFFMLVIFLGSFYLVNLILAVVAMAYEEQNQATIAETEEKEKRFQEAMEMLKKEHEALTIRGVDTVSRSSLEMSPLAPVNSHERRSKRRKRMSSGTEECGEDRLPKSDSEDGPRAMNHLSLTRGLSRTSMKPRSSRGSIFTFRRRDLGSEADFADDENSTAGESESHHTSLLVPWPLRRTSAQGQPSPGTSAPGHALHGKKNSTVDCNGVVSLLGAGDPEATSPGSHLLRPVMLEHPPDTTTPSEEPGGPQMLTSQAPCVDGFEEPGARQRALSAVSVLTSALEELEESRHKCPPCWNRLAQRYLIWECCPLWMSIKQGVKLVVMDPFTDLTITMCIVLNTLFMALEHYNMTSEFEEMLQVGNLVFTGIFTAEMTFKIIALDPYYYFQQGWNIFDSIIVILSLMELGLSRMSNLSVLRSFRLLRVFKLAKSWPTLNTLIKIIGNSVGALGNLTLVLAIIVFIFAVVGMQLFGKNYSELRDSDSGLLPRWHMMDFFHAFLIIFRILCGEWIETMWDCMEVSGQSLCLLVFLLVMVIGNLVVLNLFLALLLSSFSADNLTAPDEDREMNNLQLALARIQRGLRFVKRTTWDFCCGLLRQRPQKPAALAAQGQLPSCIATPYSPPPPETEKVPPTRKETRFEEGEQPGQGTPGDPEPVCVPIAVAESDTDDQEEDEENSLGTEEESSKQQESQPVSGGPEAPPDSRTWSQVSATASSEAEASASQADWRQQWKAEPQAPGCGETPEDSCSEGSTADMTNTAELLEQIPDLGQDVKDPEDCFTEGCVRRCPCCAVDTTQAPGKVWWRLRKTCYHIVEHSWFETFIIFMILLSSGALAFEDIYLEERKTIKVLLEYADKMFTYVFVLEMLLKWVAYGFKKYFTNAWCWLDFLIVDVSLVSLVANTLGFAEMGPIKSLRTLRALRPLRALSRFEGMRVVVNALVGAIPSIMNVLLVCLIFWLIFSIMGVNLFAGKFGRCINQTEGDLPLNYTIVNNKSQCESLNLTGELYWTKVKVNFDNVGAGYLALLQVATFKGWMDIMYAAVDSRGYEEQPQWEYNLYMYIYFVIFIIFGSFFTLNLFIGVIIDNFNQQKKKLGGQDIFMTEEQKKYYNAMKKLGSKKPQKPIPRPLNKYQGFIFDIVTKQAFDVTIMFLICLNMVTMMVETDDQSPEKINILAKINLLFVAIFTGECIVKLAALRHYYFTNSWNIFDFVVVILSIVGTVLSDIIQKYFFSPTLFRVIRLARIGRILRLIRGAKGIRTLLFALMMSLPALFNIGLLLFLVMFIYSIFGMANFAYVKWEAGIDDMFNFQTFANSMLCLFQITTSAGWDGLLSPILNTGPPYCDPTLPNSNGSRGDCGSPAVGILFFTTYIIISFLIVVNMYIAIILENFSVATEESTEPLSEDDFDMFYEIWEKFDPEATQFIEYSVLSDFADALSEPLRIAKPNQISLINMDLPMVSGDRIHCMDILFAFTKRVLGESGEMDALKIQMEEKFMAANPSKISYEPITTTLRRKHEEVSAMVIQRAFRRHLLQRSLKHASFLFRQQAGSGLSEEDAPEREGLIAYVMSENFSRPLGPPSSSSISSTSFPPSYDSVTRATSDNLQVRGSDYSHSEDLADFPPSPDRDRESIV

Structure (SMILES) | IC50 [1] | ratio of Nav 1.7 : Nav 1.5 potency (IonWorks) [2]
COc1ccc(CC2(CNCCCCNc3cc(F)c(S(=O)(=O)Nc4nccs4)cc3Cl)CCCN2)cc1 (single isomer, unassigned) [Ex 1-16 Enantiomer A, (S or R)-5-chloro-2-fluoro-4-{[4-({[2-(4-methoxybenzyl)pyrrolidin-2-yl]methyl}amino)butyl]amino}-N-1,3-thiazol-2-ylbenzenesulfonamide] | 240 nM | 50
COc1ccc(CC2(CNCCCCNc3cc(F)c(S(=O)(=O)Nc4nccs4)cc3Cl)CCCN2)cc1 (single isomer, unassigned) [Ex 1-16 Enantiomer B, (R or S)-5-chloro-2-fluoro-4-{[4-({[2-(4-methoxybenzyl)pyrrolidin-2-yl]methyl}amino)butyl]amino}-N-1,3-thiazol-2-ylbenzenesulfonamide] | 130 nM | 185
O=S(=O)(Nc1nccs1)c1cc(Cl)c(NCCCCNCC2Cc3ccccc3CN2)cc1F (single isomer, unassigned) [Ex 1-18, (R or S)-5-chloro-2-fluoro-4-({4-[(1,2,3,4-tetrahydroisoquinolin-3-ylmethyl)amino]butyl}amino)-N-1,3-thiazol-2-ylbenzenesulfonamide] | 7.9 nM | > 4177
O=S(=O)(Nc1nccs1)c1cc(Cl)c(NCC2CCCC(NCC3CCCN3)C2)cc1F (single isomer, unassigned) [Ex 6-7 Enantiomer B, 5-chloro-2-fluoro-4-((((1S,3R or 1R,3S)-3-(((S)-pyrrolidin-2-ylmethyl)amino)cyclohexyl)methyl)amino)-N-(thiazol-2-yl)benzenesulfonamide] | 35 nM | > 940
O=S(=O)(Nc1nccs1)c1cc(Cl)c(NCCCCNCCNCc2ccccc2)cc1F [Ex 1-3, 4-[(4-{[2-(benzylamino)ethyl]amino}butyl)amino]-5-chloro-2-fluoro-N-1,3-thiazol-2-ylbenzenesulfonamide] | 7 nM | > 4700
O=S(=O)(Nc1nccs1)c1cc(Cl)c(NCCCCN2CCC3(CCCN3)CC2)cc1F [Ex 1-14, 5-chloro-4-{[4-(1,8-diazaspiro[4.5]dec-8-yl)butyl]amino}-2-fluoro-N-1,3-thiazol-2-ylbenzenesulfonamide] | 38 nM | > 870
O=S(=O)(Nc1nccs1)c1cc(Cl)c(NCCCCN[C@H]2[C@@H]3CC[C@H]2NC3)cc1F [Ex 1-17, 4-({4-[(1R,4R,7S)-2-azabicyclo[2.2.1]hept-7-ylamino]butyl}amino)-5-chloro-2-fluoro-N-1,3-thiazol-2-ylbenzenesulfonamide] | 60 nM | > 550
N[C@H]1[C@@H]2CC[C@H]1N(CCCCNc1cc(F)c(S(=O)(=O)Nc3nccs3)cc1Cl)C2 [Ex 1-20, 4-({4-[(1R,4R,7S)-7-amino-2-azabicyclo[2.2.1]hept-2-yl]butyl}amino)-5-chloro-2-fluoro-N-1,3-thiazol-2-ylbenzenesulfonamide] | 56 nM | > 590
O=S(=O)(Nc1nccs1)c1cc(Cl)c(NCCCCN2C[C@H]3CNC[C@H]3C2)cc1F [Ex 1-22, 5-chloro-2-fluoro-4-({4-[(3aR,6aS)-hexahydropyrrolo[3,4-c]pyrrol-2(1H)-yl]butyl}amino)-N-1,3-thiazol-2-ylbenzenesulfonamide] | 26 nM | > 1270
O=S(=O)(Nc1nccs1)c1cc(Cl)c(NCCCCN2C[C@H]3CNCC[C@H]3C2)cc1F [Ex 1-23, 5-chloro-2-fluoro-4-({4-[(3aR,7aR)-octahydro-2H-pyrrolo[3,4-c]pyridin-2-yl]butyl}amino)-N-1,3-thiazol-2-ylbenzenesulfonamide] | 43 nM | > 770
O=S(=O)(Nc1nccs1)c1cc(Cl)c(NCCCCNC2C[C@@H]3C[C@H]2CN3)cc1F (stereo partly drawn) [Ex 1-24, 4-({4-[(1S,4S)-2-azabicyclo[2.2.1]hept-5-ylamino]butyl}amino)-5-chloro-2-fluoro-N-1,3-thiazol-2-ylbenzenesulfonamide] | 17 nM | > 1940
O=S(=O)(Nc1nccs1)c1cc(Cl)c(NCCCCN[C@@H]2[C@H]3CC[C@@H]2NC3)cc1F [Ex 1-25, 4-({4-[(1S,4S,7R)-2-azabicyclo[2.2.1]hept-7-ylamino]butyl}amino)-5-chloro-2-fluoro-N-1,3-thiazol-2-ylbenzenesulfonamide] | 21 nM | > 1590

Now from value to molecule, other results behind:

IC50 [1] | Structure (SMILES) | ratio of Nav 1.7 : Nav 1.5 potency (IonWorks) [2]
42 nM | NCC1CCN1CCCCNc1cc(F)c(S(=O)(=O)Nc2nccs2)cc1Cl (single isomer, unassigned) [Ex 16-53, (S or R)-4-({4-[2-(aminomethyl)-azetidin-1-yl]butyl}amino)-5-chloro-2-fluoro-N-1,3-thiazol-2-ylbenzene-sulfonamide] | > 786
49 nM | O=S(=O)(Nc1nccs1)c1cc(Cl)c(NCC(F)(F)CCNC[C@H]2CCCN2)cc1F [Ex 11-12, 5-chloro-4-[(2,2-difluoro-4-{[(2R)-pyrrolidin-2-ylmethyl]amino}butyl)amino]-2-fluoro-N-1,3-thiazol-2-ylbenzenesulfonamide] | –
19 nM | NC[C@H]1CCN1CCCCNc1cc(F)c(S(=O)(=O)Nc2ncc(F)s2)cc1Cl [Ex 16-10, 4-({4-[(2R)-2-(aminomethyl)azetidin-1-yl]-butyl}amino)-5-chloro-2-fluoro-N-(5-fluoro-1,3-thiazol-2-yl)-benzene-sulfonamide] | –
12 nM | O=S(=O)(Nc1ncns1)c1cc(Cl)c(NCCCCN2C[C@H]3CCCN[C@H]3C2)cc1F [Ex 16-31, 5-chloro-2-fluoro-4-({4-[(4aR,7aR)-octahydro-6H-pyrrolo[3,4-b]pyridin-6-yl]-butyl}amino)-N-1,2,4-thiadiazol-5-ylbenzene-sulfonamide] | –
10 nM | NCC1CN(CCCCNc2cc(F)c(S(=O)(=O)Nc3ncns3)cc2Br)C1 [Ex 16-37, 4-((4-(3-(aminomethyl)azetidin-1-yl)butyl)amino)-5-bromo-2-fluoro-N-(1,2,4-thiadiazol-5-yl)benzenesulfonamide] | –
30 nM | NC1CN(CCCCNc2cc(F)c(S(=O)(=O)Nc3ncns3)cc2Cl)C1 [Ex 16-38, 4-{[4-(3-aminoazetidin-1-yl)-butyl]amino}-5-chloro-2-fluoro-N-1,2,4-thiadiazol-5-yl-benzenesulfonamide] | –
29 nM | N#Cc1cc(S(=O)(=O)Nc2ncc(F)s2)c(F)cc1NCCCCN[C@@H]1CCNC1 [Ex 16-40, 5-cyano-2-fluoro-N-(5-fluoro-1,3-thiazol-2-yl)-4-({4-[(3R)-pyrrolidin-3-yl-amino]butyl}amino)benzene-sulfonamide] | –
44 nM | O=S(=O)(Nc1nccs1)c1cc(Cl)c(NCCCCNC2C[C@@H]3CN[C@H]2C3)cc1F (stereo partly drawn) [Ex 16-42, 4-({4-[(1S,4R)-2-azabicyclo[2.2.1]hept-6-yl-amino]butyl}amino)-5-chloro-2-fluoro-N-1,3-thiazol-2-ylbenzene-sulfonamide] | –
11 nM | Cc1cc(S(=O)(=O)Nc2ncc(F)s2)c(F)cc1NCCCCN[C@@H]1CCNC1 [Ex 16-43, 2-fluoro-N-(5-fluoro-1,3-thiazol-2-yl)-5-methyl-4-({4-[(3R)-pyrrolidin-3-ylamino]-butyl}amino)benzene-sulfonamide] | –
12 nM | O=S(=O)(Nc1ncc(F)s1)c1cc(Br)c(NCCCCN2C[C@H]3CCCN[C@H]3C2)cc1F [Ex 16-44, 5-bromo-2-fluoro-N-(5-fluoro-1,3-thiazol-2-yl)-4-({4-[(4aR,7aR)-octahydro-6H-pyrrolo[3,4-b]pyridin-6-yl]butyl}amino)benzene-sulfonamide] | –
16 nM | N#Cc1cc(S(=O)(=O)Nc2ncns2)c(F)cc1NCCCCN[C@@H]1CCNC1 [Ex 16-45, 5-cyano-2-fluoro-4-({4-[(3R)-pyrrolidin-3-yl-amino]butyl}amino)-N-1,2,4-thiadiazol-5-ylbenzene-sulfonamide] | –
13 nM | CN[C@@H]1CCN(CCCCNc2cc(F)c(S(=O)(=O)Nc3ncc(F)s3)cc2Cl)C1 [Ex 16-54, 5-chloro-2-fluoro-N-(5-fluoro-1,3-thiazol-2-yl)-4-({4-[(3R)-3-(methylamino)-pyrrolidin-1-yl]butyl}-amino)-benzenesulfonamide] | –
